From DBAASP come the findings set out here.

Converted amounts (≈) assume the structure as drawn. “And” between values parts separate entries of the source, which are not always exact repeats. Identical values can stand only once.

Assay in all cases: ≥ marks a high value that may be exact or a test limit, other limits are often not marked, values filed in µg/mL are converted to µM
Assay [1] has as its system Salmonella enterica subsp. enterica serovar Typhimurium ATCC 14028s.
The subject of assay [2] is Staphylococcus epidermidis.
The subject of assay [3] is Staphylococcus aureus NCTC 4163.
Assay [4] relates to Enterococcus faecalis ATCC 29212.
The test system of assay [5] is Candida albicans 105.
In assay [6] the test system is Staphylococcus aureus R147.
In assay [7] the test system is Salmonella enterica serovar Typhimurium MS4252S.
The subject of assay [8] is Escherichia coli O111.
Assay [9] concerns Escherichia coli UB1005.
The test system of assay [10] is Staphylococcus aureus 1056.
For assay [11], the system named is Pseudomonas aeruginosa PAO1.
Assay [12] concerns Escherichia coli O157:H7.
The test system of assay [13] is Candida albicans 3153A.
Assay [14] concerns Pseudomonas aeruginosa Z61.
In assay [15] the test system is Escherichia coli DC2.

In general, MIC refers to the least concentration at which growth counts as inhibited. A low value points to inhibition by little substance.

For `CC[C@H](C)[C@H](NC(=O)[C@@H]1CCCN1C(=O)[C@@H]1CCCN1C(=O)[C@H](CCCN=C(N)N)NC(=O)[C@H](Cc1ccccc1)NC(=O)[C@@H](N)CCCN=C(N)N)C(=O)N[C@@H](CCCN=C(N)N)C(=O)N[C@@H](CCCN=C(N)N)C(=O)N1CCC[C@H]1C(=O)N1CCC[C@H]1C(=O)N[C@H](C(=O)N[C@@H](CCCN=C(N)N)C(=O)N1CCC[C@H]1C(=O)N1CCC[C@H]1C(=O)N[C@@H](Cc1ccccc1)C(=O)N[C@@H](CCCN=C(N)N)C(=O)N1CCC[C@H]1C(=O)N1CCC[C@H]1C(=O)N[C@@H](Cc1ccccc1)C(=O)N[C@@H](CCCN=C(N)N)C(=O)N1CCC[C@H]1C(=O)N1CCC[C@H]1C(=O)N[C@H](C(=O)N[C@@H](CCCN=C(N)N)C(N)=O)C(C)C)[C@@H](C)CC` [RFRPPIRRPPIRPPFRPPFRPPVR], the minimum inhibitory concentration (MIC) was 0.166 µM (≈ 0.5 µg/mL) in assay [1]; 5.32 µM (≈ 16 µg/mL) in [2]; 10.6 µM (≈ 32 µg/mL) in assay [3]; 10.6 µM (≈ 32 µg/mL) in assay [4]; 10.6 µM (≈ 32 µg/mL) in assay [5]; 21.3 µM (≈ 64 µg/mL) in assay [6]. Besides, the MIC in assay [7] is 0.0416 µM (≈ 0.125 µg/mL); in assay [8] it was 0.665 µM (≈ 2 µg/mL); in assay [9], 0.0416 µM (≈ 0.125 µg/mL); in [10], 5.32 µM and 8.65 µM; in [11] it was 1.33 µM (≈ 4 µg/mL); in [12], 2.66 µM and 5.42 µM. For the same molecule, the MIC in assay [13] worked out at 5.32 µM (≈ 16 µg/mL); in assay [14], 2.66 µM (≈ 8 µg/mL); in assay [15], 0.0416 µM (≈ 0.125 µg/mL).
